Laboratory results reported in patent publication US8455665B2, “3-phenoxymethylpyrrolidine compounds” (Theravance, Inc., priority 2009, dated 2013).
Marks after values point to notes of the source that are not given here.

Legend:
[1] = biological target: T1, NET (Homo sapiens, UniProt P23975); assay: fluorescence-based norepinephrine uptake assay (Tsuruda et al. 2010); type: cell-based; conditions: norepinephrine reuptake inhibition, fluorescence-based assay (data indicated by an asterisk); read-out: NET pIC50 (converted)
[2] = biological target: T2, SERT (Homo sapiens, UniProt P31645); assay: fluorescence-based serotonin uptake assay (Tsuruda et al. 2010); type: cell-based; conditions: serotonin reuptake inhibition, fluorescence-based assay (data indicated by an asterisk); for IC50: read-out: SERT pIC50 (converted)
Target sequence in this assay (P31645 whole entry, species assumed): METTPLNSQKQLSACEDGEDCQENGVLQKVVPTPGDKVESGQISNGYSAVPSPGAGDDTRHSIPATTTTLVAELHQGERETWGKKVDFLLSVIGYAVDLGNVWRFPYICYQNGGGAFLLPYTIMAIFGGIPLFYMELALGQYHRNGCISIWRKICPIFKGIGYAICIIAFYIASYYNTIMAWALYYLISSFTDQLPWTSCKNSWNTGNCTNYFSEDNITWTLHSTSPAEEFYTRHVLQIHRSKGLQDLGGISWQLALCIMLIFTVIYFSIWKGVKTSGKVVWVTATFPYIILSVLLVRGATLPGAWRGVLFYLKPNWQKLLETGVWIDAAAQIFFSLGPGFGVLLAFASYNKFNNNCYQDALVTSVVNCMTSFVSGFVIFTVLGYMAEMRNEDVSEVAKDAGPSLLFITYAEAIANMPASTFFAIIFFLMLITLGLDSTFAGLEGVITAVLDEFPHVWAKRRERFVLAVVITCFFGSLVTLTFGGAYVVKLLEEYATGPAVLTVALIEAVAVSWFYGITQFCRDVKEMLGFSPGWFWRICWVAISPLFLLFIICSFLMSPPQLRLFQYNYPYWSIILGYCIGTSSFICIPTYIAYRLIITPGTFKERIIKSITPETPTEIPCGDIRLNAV

[3] = biological target: T2, SERT; assay: hSERT membrane radioligand binding assay (3H-citalopram); parameters: expressed in transfected cells; host or cells: HEK-293; conditions: hSERT membranes (HEK-293), 1.0 nM 3H-citalopram; for Ki: read-out: SERT pKi (converted)
Description: (§1) Membrane radioligand binding assays were used to measure inhibition of labeled ligand (^3H-citalopram or ^3H-nisoxetine or ^3H-WIN35428) binding to membranes prepared from cells expressing the respective human recombinant transporter (hSERT or hNET or hDAT) in order to determine the pKi values of test compounds at the transporters.
(§2) Recombinant human embryonic kidney (HEK-293) derived cell lines stably transfected with hSERT or hNET, respectively, were grown in DMEM medium supplemented with 10% dialyzed FBS (for hSERT) or FBS (for hNET), 100 μg/ml penicillin, 100 μg/ml streptomycin, 2 mM L-glutamine and 250 μg/ml of the aminoglycoside antibiotic G418, in a 5% CO2 humidified incubator at 37° C. When cultures reached 80% confluence, the cells were washed thoroughly in PBS (without Ca^2+ and Mg^2+) and lifted with 5 mM EDTA in PBS. Cells were pelleted by centrifugation, resuspended in lysis buffer (10 mM Tris-HCl, pH7.5 containing 1 mM EDTA), homogenized, pelleted by centrifugation, then resuspended in 50 mM Tris-HCl, pH 7.5 and 10% sucrose at 4° C. Protein concentration of the membrane suspension was determined using a Bio-Rad Bradford Protein Assay kit. Membranes were snap frozen and stored at −80° C. Chinese hamster ovary membranes expressing hDAT (CHO-DAT) were purchased from PerkinElmer and stored at −80° C.
(§3) Binding assays were performed in a 96-well assay plate in a total volume of 200 μl assay buffer (50 mM Tris-HCl, 120 mM NaCl, 5 mM KCl, pH 7.4) with 0.5, 1, and 3 μg membrane protein, for SERT, NET and DAT, respectively.
(§4) Stock solutions (10 mM in DMSO) of test compound were prepared and serial dilutions made using Dilution Buffer (50 mM Tris-HCl, 120 mM NaCl, 5 mM KCl, pH 7.4, 0.1% BSA, 400 μM ascorbic acid). Non-specific radioligand binding was determined in the presence of 1 μM duloxetine, 1 μM desipramine or 10 μM GBR12909 (each in Dilution Buffer) for the hSERT, hNET or hDAT assays, respectively.
(§5) Following a 60 minute incubation at 22° C. (or a period sufficient to reach equilibrium), the membranes were harvested by rapid filtration over a 96-well UniFilter GF/B plate, pretreated with 0.3% polyethyleneimine, and washed 6 times with […] (50 mM Tris-HCl, 0.9% NaCl, pH 7.5 at 4° C.). Plates were dried overnight at room temperature, approximately […] of MicroScint™-20 (Perkin Elmer) added and bound radioactivity quantitated via liquid scintillation spectroscopy. Inhibition curves and saturation isotherms were analyzed using GraphPad Prism Software package (GraphPad Software, Inc., San Diego, Calif.). IC50 values were generated from concentration response curves using the Sigmoidal Dose Response (variable slope) algorithm in Prism GraphPad. Kd and Bmax values for the radioligand were generated from saturation isotherms using the Saturation Binding Global Fit algorithm in Prism GraphPad. pKi (negative decadic logarithm of Ki) values for test compounds were calculated from the best-fit IC50 values, and the Kd value of the radioligand, using the Cheng-Prusoff equation (Cheng & Prusoff (1973) Biochem. Pharmacol. 22(23):3099-3108): Ki=IC50/(1+[L]/Kd), where [L]=concentration radioligand.
Target sequence in this assay (P31645 whole entry): as the sequence (P31645 whole entry, species assumed) above

[4] = biological target: T1, NET; assay: hNET membrane radioligand binding assay (3H-nisoxetine); parameters: expressed in transfected cells; host or cells: HEK-293; conditions: hNET membranes (HEK-293), 1.0 nM 3H-nisoxetine; read-out: NET pKi (converted)
Description: as §1, §2, §3, §4, §5

T1 sequence (P23975 whole entry): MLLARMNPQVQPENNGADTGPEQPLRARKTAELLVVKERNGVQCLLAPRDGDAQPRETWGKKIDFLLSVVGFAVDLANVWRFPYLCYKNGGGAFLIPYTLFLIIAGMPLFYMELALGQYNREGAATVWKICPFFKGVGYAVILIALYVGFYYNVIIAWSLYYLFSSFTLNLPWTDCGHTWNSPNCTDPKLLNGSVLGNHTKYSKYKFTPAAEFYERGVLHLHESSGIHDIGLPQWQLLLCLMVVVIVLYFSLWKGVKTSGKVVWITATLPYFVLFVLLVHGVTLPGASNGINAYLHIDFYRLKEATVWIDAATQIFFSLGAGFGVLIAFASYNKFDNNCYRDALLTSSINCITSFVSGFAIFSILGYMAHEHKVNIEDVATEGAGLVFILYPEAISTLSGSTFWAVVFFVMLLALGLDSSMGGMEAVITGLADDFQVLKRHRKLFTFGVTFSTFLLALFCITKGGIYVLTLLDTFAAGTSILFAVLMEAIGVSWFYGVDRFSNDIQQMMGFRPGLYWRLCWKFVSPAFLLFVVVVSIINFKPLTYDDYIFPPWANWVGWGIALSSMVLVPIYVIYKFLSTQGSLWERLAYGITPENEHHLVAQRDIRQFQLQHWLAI

Row | SMILES | IC50 [1] [nM] | IC50 [2] [nM] | Ki [3] [nM] | Ki [4] [nM] | SERT pKi [3] | SERT pIC50 [2]
1 | Cc1c(Cl)cccc1O[C@@H](COC(C)C)[C@@H]1CCNC1 [Example 9-14, (R)-3-[(R)-1-(3-Chloro-2-methylphenoxy)-2-isopropoxyethyl]pyrrolidine] | ≤ 100 | ≤ 10 | ≤ 10 | ≤ 100 | – | –
2 | CC(C)OC[C@H](Oc1cccc(F)c1Cl)[C@@H]1CCNC1 [Example 9-10, (R)-3-[(R)-1-(2-Chloro-3-fluorophenoxy)-2-isopropoxyethyl]pyrrolidine] | ≤ 100 | ≤ 100 | ≤ 100 | ≤ 100 | – | –
3 | CC(C)OC[C@H](Oc1ccc(Cl)cc1Cl)[C@@H]1CCNC1 [Example 9-22, (R)-3-[(R)-1-(2,4-Dichlorophenoxy)-2-isopropoxyethyl]pyrrolidine] | ≤ 1000 | ≤ 10 | ≤ 10 | ≤ 1000 | – | –
4 | COC[C@H](Oc1cccc(Cl)c1Cl)[C@@H]1CCNC1 [Example 4-8, (R)-3-[(R)-1-(2,3-Dichlorophenoxy)-2-methoxyethyl]pyrrolidine] | – | – | ≤ 10 | ≤ 100 | – | –
5 | COCC(Oc1ccccc1Cl)C1CCNC1 (single isomer, unassigned) [Example 4-2, 3-[1-(2-Chlorophenoxy)-2-methoxyethyl]pyrrolidine] | – | – | – | ≤ 10 | ≧7.0 | –
6 | COCC(Oc1cc(Cl)cc(Cl)c1)C1CCNC1 (stereo not drawn) [Example 4-29, 3-[1-(3,5-Dichlorophenoxy)-2-methoxyethyl]pyrrolidine] | – | – | ≤ 10 | ≤ 100 | – | –
7 | COC[C@@H](Oc1c(Cl)cccc1Cl)[C@H]1CCNC1 [Example 4-27, (S)-3-[(S)-1-(2,6-Dichlorophenoxy)-2-methoxyethyl]pyrrolidine] | – | – | ≤ 100 | ≤ 100 | – | –
8 | COC[C@H](Oc1c(Cl)cccc1Cl)[C@H]1CCNC1 [Example 4-28, (S)-3-[(R)-1-(2,6-Dichlorophenoxy)-2-methoxyethyl]pyrrolidine] | – | – | ≤ 100 | ≤ 10 | – | –
9 | COC[C@H](Oc1cccc(Cl)c1C)[C@@H]1CCNC1 [Example 4-17, (R)-3-[(R)-1-(3-Chloro-2-methylphenoxy)-2-methoxyethyl]pyrrolidine] | – | – | ≤ 10 | ≤ 100 | – | –
10 | COCCC(Oc1ccc(Cl)cc1C)C1CCNC1 (single isomer, unassigned) [5 (1st peak)] | – | – | ≤ 10 | ≤ 100 | – | –
11 | Cc1c(Cl)cccc1O[C@@H](COC(C)C)[C@@H]1CCNC1 [Example 9-25, (R)-3-[(R)-1-(3-Chloro-2-methylphenoxy)-2-isopropoxyethyl]pyrrolidine] | – | – | – | – | ≧8.0 | ≧8.0*
12 | COCC(Oc1ccccc1Cl)C1CCNC1 (single isomer, unassigned) [Example 4-1, 3-[1-(2-Chlorophenoxy)-2-methoxyethyl]pyrrolidine] | – | – | ≤ 100 | ≤ 100 | – | –
13 | COC[C@H](Oc1cccc(F)c1Cl)[C@H]1CCNC1 [Example 4-12, (S)-3-[(R)-1-(2-Chloro-3-fluorophenoxy)-2-methoxyethyl]pyrrolidine] | – | – | ≤ 100 | ≤ 10 | – | –
14 | CSCCC(Oc1cccc(Cl)c1Cl)C1CCNC1 (mixture of isomers) [Example 20, 3-[1-(2,3-Dichlorophenoxy)-3-methylsulfanylpropyl]pyrrolidine] | – | – | ≤ 10 | ≤ 10 | – | –
15 | COCC(Oc1ccc(Cl)cc1)C1CCNC1 (stereo not drawn) [Example 4-4, 3-[1-(4-Chlorophenoxy)-2-methoxyethyl]pyrrolidine] | – | – | ≤ 10 | ≤ 100 | – | –
16 | COC[C@H](Oc1cccc(C(F)(F)F)c1)[C@H]1CCNC1 [Example 4-3, (S)-3-[(R)-2-Methoxy-1-(3-trifluoromethylphenoxy)ethyl]pyrrolidine] | – | – | ≤ 100 | ≤ 100 | – | –

Results, then the molecule that gave them:

Row | IC50 [1] [nM] | IC50 [2] [nM] | Ki [3] [nM] | Ki [4] [nM] | SERT pKi [3] | SERT pIC50 [2] | SMILES
17 | – | – | ≤ 100 | ≤ 100 | – | – | Clc1cccc(Cl)c1O[C@H](C1CCOCC1)[C@H]1CCNC1 [Example 13-25, (S)-3-[(R)-(2,6-Dichlorophenoxy)(tetrahydropyran-4-yl)methyl]pyrrolidine]
18 | – | – | ≤ 100 | ≤ 100 | – | – | Fc1ccc(O[C@H](C2CCOCC2)[C@@H]2CCNC2)cc1 [Example 13-10, (R)-3-[(R)-(4-Fluorophenoxy)(tetrahydropyran-4-yl)methyl]pyrrolidine]
19 | – | – | ≤ 100 | ≤ 100 | – | – | Fc1cccc(O[C@@H](C2CCOCC2)[C@@H]2CCNC2)c1 [Example 13-5, (R)-3-[(S)-(3-Fluorophenoxy)(tetrahydropyran-4-yl)methyl]pyrrolidine]
20 | – | – | ≤ 100 | ≤ 10 | – | – | Clc1cccc(Cl)c1O[C@H](C1CCOCC1)[C@@H]1CCNC1 [Example 13-26, (R)-3-[(R)-(2,6-Dichlorophenoxy)(tetrahydropyran-4-yl)methyl]pyrrolidine]
21 | – | – | ≤ 10 | ≤ 100 | – | – | FC(F)(F)c1c(Cl)cccc1O[C@H](C1CCOCC1)[C@H]1CCNC1 [Example 13-19, (S)-3-[(R)-(3-Chloro-2-trifluoromethylphenoxy)(tetrahydropyran-4-yl)-methyl]-pyrrolidine]
22 | – | – | ≤ 100 | ≤ 10 | – | – | Clc1ccccc1O[C@H](C1CCOCC1)[C@@H]1CCNC1 [Example 13-2, (R)-3-[(R)-(2-Chlorophenoxy)(tetrahydropyran-4-yl)methyl]pyrrolidine]
23 | – | – | ≤ 100 | ≤ 10 | – | – | Fc1cccc(O[C@H](C2CCOCC2)[C@@H]2CCNC2)c1 [Example 13-6, (R)-3-[(R)-(3-Fluorophenoxy)(tetrahydropyran-4-yl)methyl]pyrrolidine]
24 | – | – | ≤ 10 | ≤ 100 | – | – | FC(F)(F)c1cc(Cl)ccc1O[C@H](C1CCOCC1)[C@@H]1CCNC1 [Example 13-23, (R)-3-[(R)-(4-Chloro-2-trifluoromethylphenoxy)(tetrahydropyran-4-yl)methyl]pyrrolidine]
25 | – | – | ≤ 10 | ≤ 100 | – | – | Clc1cc(Cl)cc(O[C@@H](C2CCOCC2)[C@H]2CCNC2)c1 [Example 13-28, (S)-3-[(S)-(3,5-Dichlorophenoxy)(tetrahydropyran-4-yl)methyl]pyrrolidine]
26 | – | – | ≤ 100 | ≤ 100 | – | – | FC(F)(F)c1cccc(O[C@H](C2CCOCC2)[C@@H]2CCNC2)c1 [Example 13-7, (R)-3-[(R)-(Tetrahydropyran-4-yl)(3-trifluoromethylphenoxy)methyl]pyrrolidine]
27 | – | – | ≤ 100 | ≤ 10 | – | – | Clc1cccc(Cl)c1O[C@@H](C1CCOCC1)[C@@H]1CCNC1 [Example 13-27, (R)-3-[(S)-(2,6-Dichlorophenoxy)(tetrahydropyran-4-yl)methyl]pyrrolidine]
28 | – | – | ≤ 10 | ≤ 100 | – | – | FC(F)(F)c1c(Cl)cccc1OC(C1CCOCC1)C1CCNC1 [Example 13-18, (S)-3-[(S)-(3-Chloro-2-trifluoromethylphenoxy)(tetrahydropyran-4-yl)-methy]-pyrrolidine]
29 | – | – | ≤ 10 | ≤ 100 | – | – | FC(F)(F)c1c(Cl)cccc1O[C@@H](C1CCOCC1)[C@@H]1CCNC1 [Example 13-21, (R)-3-[(S)-(3-Chloro-2-trifluoromethylphenoxy)(tetrahydropyran-4-yl)-methyl]-pyrrolidine]
30 | – | – | ≤ 100 | ≤ 100 | – | – | FC(F)(F)c1cccc(O[C@@H](C2CCOCC2)[C@H]2CCNC2)c1 [Example 13-8, (S)-3-[(S)-(Tetrahydropyran-4-yl)(3-trifluoromethylphenoxy)methyl]pyrrolidine]
